Experimental data taken from patent US20230072528A1, “METHODS FOR DISCONTINUING A TREATMENT WITH A TYROSINE KINASE INHIBITOR (TKI)” (INSERM (Institut National de la Santé et de la Recherche …, priority 2020, published 2023).

System: innate CD8(+) T-cells
Assay: Ex vivo flow cytometry of peripheral blood CD8(+) T-cell subsets in CML patients under therapy (DASA-PEGIFN phase II trial)
Set-up: species or system human
Settings: for innate CD8(+) T-cell frequency (mean±SD): 3 months after initiation of therapy
Description: The phase II DASA-PEGIFN clinical trial was registered with EudraCT number 2012-003389-42. Briefly, newly diagnosed Ph^+ CP-CML patients were treated first-line with dasatinib at 100 mg/day. At 3 months, they were assigned to receive Peg-IFNα2b associated to dasatinib when platelets>100×109/L, neutrophils>1.5×10^9/L and lymphocytes<4.0×109/L counts were achieved. Venous blood was collected on heparin at several time points: diagnosis, 3, 6, 12 and 24 months after initiation of treatment Among the 61 patients receiving Dasatinib+Peg-IFNα2b therapy, we analysed samples from 40 patients. Two out of them were excluded for technical issues. See Table 1 for detailed patient's characteristics. Patients response to treatment were classified conforming to 2013 ELN criteria. Major molecular response was defined as a ratio of BCR-ABL1/ABL1≤0.1% on the international scale (IS). A ratio of BCR-ABL1/ABL1IS≤0.01% defined a molecular response of 4-log reduction or in our work a deep molecular response (DMR). All patients gave informed consent in accordance with the Declaration of Helsinki for participation in the study, which was approved by the scientific committee of the INSERM CIC-1402 (Poitiers, France) and Comité Protection Personnes Recherche Biomédicale Région Poitou Charentes (protocol number 12.10.31).
Peripheral blood mononuclear cells (PBMC) were isolated from blood samples by density gradient centrifugation (Histopaque®-1077, Sigma-Aldrich, St Louis, Mo., US), resuspended in 90% Fetal Bovine Serum (10270106, Gibco®, Thermo Fisher Scientific, Waltham, Mass., US) with 10% DMSO (D2650, Sigma-Aldrich), and cryopreserved at −80° C. or in liquid nitrogen until use.
Phenotypic analysis of cells from HD and CML patients was performed by ex vivo flow cytometry. All monoclonal antibodies (mAbs) used in this study are listed in Supplementary Table 2. The expression of the different markers was assessed by staining PBMC with appropriate combinations of mAbs. panKIR/NKG2A referred to staining with the mix of the three following antibodies from Miltenyi Biotec (Bergisch Gladbach, Germany) KIR2D, KIR3DL1/KIR3DL2 (CD158e/k) and NKG2A (CD159a). Dead cells were excluded using the Live/Dead® Fixable NearIR Dead Cell Stain kit (L10119, Invitrogen™, Thermo Fisher Scientific). For intranuclear Eomes staining, cells were permeabilized with anti-human Foxp3 staining kit according to the manufacturer's protocol (73-5776-40, eBioscience™, Thermo Fisher Scientific). Flow data were acquired on a FACSVerse flow cytometer (Becton, Dickinson & Compagny, Franklin Lakes, N.J., US) with FACSuite™ software (Becton, Dickinson & Compagny) and analyzed using FlowJo™ v10 (Becton, Dickinson & Compagny). Results are expressed as either percent positive cells or as mean fluorescence intensity (MFI).
Results are shown as box and whiskers with 5 percentile, median and 95 percentile unless indicated otherwise. All statistical data analyses were performed using GraphPad Prism v7.0 (GraphPad software, Inc). Wilcoxon and Mann-Whitney two-tailed test were used for paired and unpaired data analysis, respectively. A p value<0.05 was considered significant. Cumulative response rates were calculated using the cumulative incidence approach and Mantle-Cox method. The cut-off point for innate CD8(+) T-cells was optimized by receiver operating characteristics (ROC) curves and the Youden index using the logarithm of innate CD8(+) T-cell frequency at diagnosis and after 3 months of therapy. Patients were dichotomized according to their low or high percentage of innate CD8(+) T-cells. Data are presented as Kaplan-Meier curves.

[1] = after 3 months of therapy as compared to diagnosis

For Cc1nc(Nc2ncc(C(=O)Nc3c(C)cccc3Cl)s2)cc(N2CCN(CCO)CC2)n1 [dasatinib, N-(2-chloro-6-methylphenyl)-2-[[6-[4-(2-hydroxyethyl)-1-piperazinyl]-2-methyl-4-pyrimidinyl]amino]-5-thiazole-carboxamide monohydrate], the “innate CD8(+) T-cell frequency (mean±SD)” value (M12-DMR group (DMR achieved at 12 months)) was 9.14±6.54%, the “innate CD8(+) T-cell frequency (mean±SD)” value (M12-noDMR group (no DMR at 12 months)) was 3.48±2.43% and the “frequency of innate CD8(+) T-cells (mean±SD)” value (CML patients, whole group, after 3 months of therapy, among total CD8+TCR-αβ+ cells, 3.78±3.39% at diagnosis) was 5.98±5.43%. The “Eomes and CD49d expression levels of innate CD8(+) T-cells” value [1] was “significant increase”, the “conventional-memory CD8(+) T-cell frequency” value [1] was “concomitantly increased” and the “naive CD8(+) T-cell frequency” value [1] was “decreased”.
